Assay results reported in patent publication US20050009858A1, “Imiquimod therapies” (priority 2001, published 2005).
Entries after “also recorded” stand apart in the source; their conditions may differ. Read-outs that look alike come from different tables or passages of the source.

Legend:
IFN-α and TNF-α [1] = settings: rats; topical 1 and 5% cream; cited from earlier work
[2] = test system: infantile hemangioma (IH); test: Clinical cases: topical 5% imiquimod cream in 4 patients with infantile hemangioma; type: in vivo, human
Description: The option of topical 5% imiquimod cream at a frequency of three times per week was offered to the parents of 4 patients with IH. In each case this treatment option was found acceptable by both parents, who fully understood that this was an off label use of the medication.
A child presented for consultation with an IH on the frontal scalp (3.0×2.5 cm) that was noticed and enlarged rapidly.
A child presented with a red-grey bulbous, 4.5 cm in diameter IH on the frontal scalp that appeared and grew rapidly. MRI analysis supported the clinical diagnosis of IH. […] The medication at the parent's request was discontinued. […] Imiquimod was restarted and increased to every other day for 6 weeks. […] Therapy was discontinued.
A healthy infant was born with a small reddish, flat IH over the left lower lip that started to grow rapidly. Imiquimod, 5%, cream was applied every other day to the outer lip area only. […] The patient is […] and continues the treatment.
An infant was born with a IH on the right upper eyelid that grew rapidly during their first few months life. An MRI study excluded any involvement of any underling ocular structure. Topical application of imiquimod 5% cream was applied every other day for one month over the entire IH.

[3] = test system: cytokines including IL-2 and IFN-γ; settings: as a result of IL-12 production; cited from earlier work
IFN-α and TNF-α [4] = settings: nude mice; topical 1 and 5% cream; cited from earlier work
[5] = test system: epithelioid hemangioendothelioma (EH); test: Clinical case: 5% imiquimod topical cream in a patient with epithelioid hemangioendothelioma; type: in vivo, human
Description: EH is a low grade malignant vascular tumor that occurs most commonly in the superficial or deep soft tissues of the body. The patient refused surgery for personal reasons, but acquiesced to the use of 5% imiquimod cream, even though such usage was off label.
A patient developed a nodule on the left cheek that started to grow over the period of 6 months. […] However, they were willing to apply 5% imiquimod topical cream after they were informed of the success of this agent in treatment of some skin cancers and hemangiomas.

[6] = test system: polyoma virus-induced hemangioendothelioma; settings: topical imiquimod; cited from earlier work
[7] = test system: Lichen Sclerosus (LS) lesions; test: Clinical case: topical imiquimod 5% cream in a patient with penile Lichen Sclerosus; type: in vivo, human; settings: person; for Side effects / local reaction at treated areas: imiquimod 5% cream every other day, reaction after 2 weeks; for Disappearance of LS lesions: imiquimod 5% cream topically every other day for 2 weeks, assessed two weeks after stopping
Description: A person presented to our office (MIM) with the main complaint of whitish patches on the penis of 2 months duration associated with occasional pruritus. […] Because of its immunomodulatory effects, treatment of the LS lesions with imiquimod 5% cream was offered to the patient. It was clearly explained to them that this was an off label use of the medication. They began topical application to the affected areas every other day.

CC(C)Cn1cnc2c(N)nc3ccccc3c21 [imiquimod]
IFN-α (IFN-α and TNF-α [1]): local increase | TNF-α (IFN-α and TNF-α [1]): local increase | IH lesion response ([2]; Case 1: frontal scalp IH 3.0×2.5 cm, after 4 weeks of thrice weekly application): less protuberant | Side effects ([2]; Case 1, after 4 weeks of thrice weekly application): marked erythema and crusting | IH lesion response ([2]; Case 1, after therapy discontinued for 2 weeks): marked reduction in the size of the IH | Side effects ([2]; Case 1, application every other day for 2 weeks): reappearance of inflammation and crusting | IH lesion response ([2]; Case 1, follow-up 4 weeks after end of therapy): virtually complete clinical regression of the IH with return to normal skin color | Recurrence at follow-up ([2]; Case 1, most recent follow-up): no recurrence of the lesion | Side effects ([2]; Case 2: frontal scalp IH 4.5 cm, after 3 weeks of 3 times weekly): marked crusting and erythema | IH lesion response ([2]; Case 2, four weeks after the 6 week course): near complete regression of the lesion | IH lesion at last follow-up ([2]; Case 2, last follow-up): the lesion had completely disappeared | Side effects ([2]; Case 2, restarted, every other day for 6 weeks): recurrence of erythema and crusting | IH lesion course after discontinuation ([2]; Case 2, two months after medication discontinued): rapid regrowth of the lesion | Side effects ([2]; Case 3: IH left lower lip, 5% cream every other day to outer lip area, after 2 weeks): marked inflammation and crusting over the lip area | IH lesion response, untreated area ([2]; Case 3, inner buccal mucosa (untreated)): persisted but had also decreased in size | IH lesion response, treated area ([2]; Case 3, outer lip area, after one and a half months of therapy): most of the IH over the outer lip area had regressed | Side effects ([2]; Case 4: IH right upper eyelid, 5% cream every other day): Erythema and crusting developed in two weeks | IH lesion response ([2]; Case 4, after one month of application every other day): regressed almost to the skin level | Neurologic examination ([2]; all patients of the report): none showed any adverse effects | Outcome of IH lesions ([2]; the other two patients, treatment continuing): continue to respond dramatically to treatment | Outcome of IH lesions ([2]; the two patients who completed therapy, at least one year of follow up): complete disappearance of their lesions with no recurrence at least at one year of follow up | Cytokine production [3]: production of other cytokines including IL-2 and IFN-γ | IFN-α (IFN-α and TNF-α [4]): local increase | TNF-α (IFN-α and TNF-α [4]): local increase | Nodule size ([5]; after 2 weeks of application): decreased remarkably in size | Biopsy histology ([5]; biopsy just before surgery): scarring in the central cleared area and some residual tumor with marked inflammation in the peripheral inflamed rim | Lesion course in the interim before surgery ([5]; interim before surgery): continued to improve in the interim, developing a central cleared area | Side effects ([5]; person, 2.5 cm nodule left cheek, after 2 weeks of application): erythema and crusting | Re-biopsy histology ([5]; re-biopsy after 2 weeks of application): persistent hemangioendothelioma but with mild atypia and marked inflammation and fibrosis | Surgical specimen histology ([5]; surgical specimen): only scarring with no evidence of tumor | Apoptosis [6]: increased apoptosis | Intratumoral mast cells [6]: increased intratumoral mast cells | TNF-α level [6]: elevated levels | Tissue inhibitor of metalloproteinases type 1 (TIMP-1) level [6]: elevated levels | Side effects / local reaction at treated areas [7]: strong reaction at the treated areas with pruritus, burning and intermittently mild pain; also recorded: erythematous, edematous plaques that were well defined and did not extend onto uninvolved skin | Side effects / local reaction at treated areas ([7]; listed as Imiquimod): minimal side-effects | Disappearance of LS lesions [7]: complete disappearance of the lesions | Disappearance of LS lesions ([7]; listed as Imiquimod): all the lesions of LS that were treated and developed the reaction had disappeared leaving no signs of any cutaneous change
